Data on nine compounds can be found in patent US20080299542A1, “IDENTIFICATION OF OXIDATIVELY MODIFIED PEPTIDE SEQUENCES IN THE PROTEOME (LOSCALZO)” (priority 2007, published 2008).

Structures are written as SMILES. “Also recorded” adds a separate entry of the source.

One test has as its system vWF. The test is described as follows: multimeric vWF immunoblot / immunofluorescence in HPAECs. Format: cell-based, human. Conditions: FIG. 1i. On the procedure:
(§1) Western blotting and indirect immunofluorescence: Cells were lysed in cell lysis buffer (Cell Signaling, Danvers, Mass.). Lysate protein concentration was measured by the Biorad DC protein assay. Equal amounts of proteins were separated by MOPS-SDS-PAGE, then transferred to poly(vinylidene difluoride) membranes (Invitrogen, Carlsbad, Calif.). Membranes were then blocked and the signal detected with a BM Chemiluminescence Blotting kit (Roche Diagnostics, Basel, Switzerland), BM POD precipitating blotting substrate (Roche Diagnostics, Basel, Switzerland), or Supersignal West Femto blotting kit (Pierce, Rockford, Ill.) according to the manufacturer's instructions. For protein inter-subunit disulfide bond detection, cells were lysed in cell lysis buffer containing 200 mM N-ethyl-maleimide and incubated at 37° C. for 1 hr. LDS sample buffer with or without DTT was added to cell lysates, and proteins were separated by MOPS-SDS-PAGE. For indirect immunofluorescence studies, formaldehyde-fixed cells were permeablized with 0.3% Triton for 10 min, blocked with 1% BSA for 30 min, then detected with antibodies. Primary antibodies used in this study include monoclonal or polyclonal antibodies against CD98, PECAM, endoglin, vWF, PDI, pEGFR, EGFR, FGFR, and CD71 from Santa Cruz; against actin, from Sigma, St. Louis, Mo.; against pFGFR, pIGF1R, and IGF1R from Cell Signaling (Danvers, Mass.); against thioredoxin, MnSOD, catalase, and GAPDH from Abcam, Cambridge, Mass.; and against LOX-1 from Serotec, Raleigh, N.C. All secondary fluorescent-labeled or horseradish peroxidase-conjugated antibodies were obtained from Jackson Immunoresearch, West Grove, Pa.

Test [1] relates to protein disulfides in BAECs. Briefly: in situ fluorescence imaging of cellular protein disulfides (BAECs). Format: cell-based, Bovine. To be noted: for protein disulfide formation: BAECs, mitochondrial inhibitors, FIG. 1b. The protocol: (§2) Detection of cellular disulfide-containing proteins: We developed a method for imaging disulfide-containing proteins in situ. Methanol-fixed cells were treated with 200 mM iodoacetamide in 100 mM Tris, pH 8.3, 5 mM EDTA at 37° C. for 1 hour to block thiols. The cells were then washed six times with Tris-buffered saline, pH 8.0, 5 mM EDTA, after which they were incubated with 5 mM EDTA, 1 mM tris(2-carboxyethyl) phosphine, pH 8.3, at room temperature to reduce disulfides and with 1 mM 5-iodoacetamidofluorescein (5-IAF) in 100 mM Tris to label the resulting thiols for 1 hour. Excess dye was removed by washing the cells repeatedly with TBS. Stained cells fixed to slides were then treated with Prolonged Antifade Mounting Medium, and cell nuclei were counterstained with DAPI. Fluorescent images were taken with a Nikon fluorescence TE 2000 microscope. Fluorescence intensity was quantified by subtracting background fluorescence, then integrating the image with the NIH IMAGEJ program and normalizing by cell number as determined by DAPI fluorescence. Four fields magnified×20 were analyzed per experiment, with 100-200 cells counted per sample.

The next test relates to Endoglin. Briefly: endoglin disulfide-dependent detection and localization in HPAECs. It counts as cell-based, human. Conditions: non-reducing immunoblot; FIG. 1j. On the procedure: as §1, with “Primary antibodies used in this study include monoclonal or polyclonal antibodies against CD98, PECAM, endoglin, vWF, PDI, pEGFR, EGFR, FGFR, and CD71 from Santa Cruz; against actin, from Sigma, St. Louis, Mo.; against pFGFR, pIGF1R, and IGF1R from Cell Signaling (Danvers, Mass.); against thioredoxin, MnSOD, catalase, and GAPDH from Abcam, Cambridge, Mass.; and against LOX-1 from Serotec, Raleigh, N.C. All secondary fluorescent-labeled or horseradish peroxidase-conjugated antibodies were obtained from Jackson Immunoresearch, West Grove, Pa.” left out

In the next test the test system is LOX-1. The test is described as follows: acetylated LDL (AcLDL) uptake by HPAECs. Format: cell-based, human. Conditions: for uptake of acetylated LDL (AcLDL) by HPAECs: mitochondrial inhibitors for 8 hr, FIG. 5. On the procedure: (§3) Surface receptor functional assessment: After treatment, cells was incubated with 500 ng/ml Alexa 488-labeled EGF in DMEM containing 1% BSA, 50 μg/ml Alexa-488-labeled transferrin for 10 min, or 10 μg/ml Alexa 488-labeled AcLDL for 30 min in growth medium, and then washed with cold HBSS four times before fixation with formaldehyde at room temperature. Cells were also trypsinzed and ligand uptake quantified by flow cytometry (FACS Calibur). For protein phosphorylation studies, cell lysates were also collected 5 min after stimulation with ligands.

A further test relates to EGFR. The test is described as follows: EGF uptake and EGF-induced EGFR phosphorylation. Format: cell-based. Conditions: Chang liver cells. On the procedure: (§4) Surface receptor functional assessment: After treatment, cells was incubated with 500 ng/ml Alexa 488-labeled EGF in DMEM containing 1% BSA, 50 μg/ml Alexa-488-labeled transferrin for 10 min, or 10 μg/ml Alexa 488-labeled AcLDL for 30 min in growth medium, and then washed with cold HBSS four times before fixation with formaldehyde at room temperature. Cells were also trypsinzed and ligand uptake quantified by flow cytometry (FACS Calibur). For protein phosphorylation studies, cell lysates were also collected 5 min after stimulation with ligands. Western blotting and indirect immunofluorescence: Cells were lysed in cell lysis buffer (Cell Signaling, Danvers, Mass.). Lysate protein concentration was measured by the Biorad DC protein assay. Equal amounts of proteins were separated by MOPS-SDS-PAGE, then transferred to poly(vinylidene difluoride) membranes (Invitrogen, Carlsbad, Calif.). Membranes were then blocked and the signal detected with a BM Chemiluminescence Blotting kit (Roche Diagnostics, Basel, Switzerland), BM POD precipitating blotting substrate (Roche Diagnostics, Basel, Switzerland), or Supersignal West Femto blotting kit (Pierce, Rockford, Ill.) according to the manufacturer's instructions. […] For indirect immunofluorescence studies, formaldehyde-fixed cells were permeablized with 0.3% Triton for 10 min, blocked with 1% BSA for 30 min, then detected with antibodies. […]

A further test concerns FGFR. The test is described as follows: bFGF-induced FGFR phosphorylation. It counts as cell-based. To be noted: in the presence of 0.3 mM DTT; Chang liver cells; FIG. 8d. On the procedure:
as §4

For a further test, the system named is CD71. The test is described as follows: transferrin uptake (mediated by CD71) by HPAECs. It counts as cell-based, human. To be noted: 0.5 mM DTT, 30 min, flow cytometry. The protocol:
as §3
In general terms: In flow cytometry, cells or beads pass a laser one at a time.

Another test relates to IGF-1R. Briefly: IGF-1-induced IGF-1R phosphorylation. It counts as cell-based. To be noted: in the presence of 0.3 mM DTT; Chang liver cells; FIG. 8c. The protocol:
as §4

A further test has as its system GRP78. Briefly: ER stress marker induction, GRP78. Format: cell-based. To be noted: compared to tunicamycin and thapsigargin treatments. The protocol: as §1, with “Primary antibodies used in this study include monoclonal or polyclonal antibodies against CD98, PECAM, endoglin, vWF, PDI, pEGFR, EGFR, FGFR, and CD71 from Santa Cruz; against actin, from Sigma, St. Louis, Mo.; against pFGFR, pIGF1R, and IGF1R from Cell Signaling (Danvers, Mass.); against thioredoxin, MnSOD, catalase, and GAPDH from Abcam, Cambridge, Mass.; and against LOX-1 from Serotec, Raleigh, N.C. All secondary fluorescent-labeled or horseradish peroxidase-conjugated antibodies were obtained from Jackson Immunoresearch, West Grove, Pa.” left out

The next test concerns GRP94. Briefly: ER stress marker induction, GRP94. It counts as cell-based. Conditions: compared to tunicamycin and thapsigargin treatments. The protocol: as §1, with “Primary antibodies used in this study include monoclonal or polyclonal antibodies against CD98, PECAM, endoglin, vWF, PDI, pEGFR, EGFR, FGFR, and CD71 from Santa Cruz; against actin, from Sigma, St. Louis, Mo.; against pFGFR, pIGF1R, and IGF1R from Cell Signaling (Danvers, Mass.); against thioredoxin, MnSOD, catalase, and GAPDH from Abcam, Cambridge, Mass.; and against LOX-1 from Serotec, Raleigh, N.C. All secondary fluorescent-labeled or horseradish peroxidase-conjugated antibodies were obtained from Jackson Immunoresearch, West Grove, Pa.” left out

Test [2] deals with protein disulfides in Chang liver cells. The test is described as follows: in situ fluorescence imaging of cellular protein disulfides (Chang liver cells). Format: cell-based. Conditions: CCCP for 4 hr, FIG. 1a. On the procedure:
as §2

The test system of another test is CD98. Briefly: CD98 heterodimer blot in Chang liver cells. Conditions: mitochondrial inhibitor treated. It counts as cell-based. The protocol:
as §1, with “Primary antibodies used in this study include monoclonal or polyclonal antibodies against CD98, PECAM, endoglin, vWF, PDI, pEGFR, EGFR, FGFR, and CD71 from Santa Cruz; against actin, from Sigma, St. Louis, Mo.; against pFGFR, pIGF1R, and IGF1R from Cell Signaling (Danvers, Mass.); against thioredoxin, MnSOD, catalase, and GAPDH from Abcam, Cambridge, Mass.; and against LOX-1 from Serotec, Raleigh, N.C. All secondary fluorescent-labeled or horseradish peroxidase-conjugated antibodies were obtained from Jackson Immunoresearch, West Grove, Pa.” left out

The next test relates to HPAECs. The test is described as follows: mitochondrial membrane potential by JC-1 fluorescence. Format: cell-based, human. Conditions: after CCCP treatment, FIG. 5b. The protocol: Mitochondrial membrane potential measurement: Cells were incubated with medium containing 1 ug/ml JC-1 for […], washed with HBSS, and then observed by fluorescence microscopy immediately. Alternatively, fluorescence was measured with a GEMINI XPS microplate reader, with an excitation wavelength of 488 nm and an emission wavelength of 536 nm, as well as an excitation wavelength of 528 nm and an emission wavelength 590 nm. Mitochondrial membrane potential was expressed as the ratio of emission at 590 nm to that at 536 nm.

On to `CCCCS(=N)(=O)CCC(N)C(=O)O` (stereo not shown) [BSO, buthionine sulfoximine], for which, in the test on vWF, the “disulfide-linked multimeric vWF” value is recorded as “increased”.

In the case of `O=c1c2ccccc2[se]n1-c1ccccc1` [ebselen], in test [1] (FIG. 1c, p<0.01, cell type not stated), the “inhibition of disulfide formation” value amounted to 55%.

On to `O=C(CC(=O)C(F)(F)F)c1cccs1` [TTFA, thienoyltrifluoroacetone], for which, in the test with Endoglin, the “endoglin detected by P4A4 antibody” value is recorded as “less endoglin was detected”. For the same compound, the protein disulfide formation result in test [1] is “decreased”. For the same compound, the “uptake of acetylated LDL (AcLDL) by HPAECs” value with LOX-1 was “decreased”.

In the case of `C[C@]12CC[C@H](O)CC1=CC[C@@H]1[C@@H]2CC[C@]2(C)C(=O)CC[C@@H]12` [DHEA, dehydroepiandrosterone], the “disulfide-linked multimeric vWF” value with vWF was “increased”.

As to `O[C@H](CS)[C@H](O)CS` (racemic) [DTT, dithiothreitol], the “uptake of EGF” value in the test on EGFR (0.5 mM DTT, 30 min, flow cytometry) was “did not change”. Also, in the test on EGFR (in the presence of 0.5 mM DTT), the “EGFR activation by EGF” value is “fully activated”. Also, the “phosphorylation of FGFR” value in the test on FGFR is “completely inhibited”. The uptake of transferrin result in the test with CD71 is listed as “did not change”. Besides, the “phosphorylation of IGF-1Rβ” value in the test on IGF-1R is “completely inhibited”. For the same compound, the “uptake of AcLDL by HPAECs” value in the test with LOX-1 (0.5 mM DTT, 30 min, flow cytometry, FIG. 8a) is on record as “decreased”.

Take `CO/C(=C/C(N)=O)[C@H](C)[C@H](/C=C/c1csc(-c2csc([C@@H](C)/C=C/C=C/C(C)C)n2)n1)OC` [myxothiazol]: in [1], the protein disulfide formation entry is “decreased”.

For the compound `CCCCCC[C@H]1C(=O)O[C@H](C)[C@H](NC(=O)c2cccc(NC=O)c2O)C(=O)O[C@@H](C)[C@@H]1OC(=O)CC(C)C` [ATM, antimycin A], the protein disulfide formation result in test [1] is “least effective”.

Take `N#CC(C#N)=NNc1cccc(Cl)c1` [CCCP, carbonylcyanide m-chlorophenylhydrazone]: the “upregulation of GRP78” value in the test with GRP78 is given as “did not induce significant upregulation”. Moreover, the “upregulation of GRP94” value in the test with GRP94 is “did not induce significant upregulation”. In addition, the “overall protein disulfide signal” value in test [2] is on record as “decreased”. Also, the “endoglin detected by P4A4 antibody” value in the test with Endoglin is recorded as “less endoglin was detected”. Besides, the protein disulfide formation result in test [1] is “decreased; also recorded: most effective”. For the same compound, in test [1] (CCCP for 8 hrs, FIG. 4), the “effect on protein disulfide formation in MitoCAT overexpressing cells” value is on record as “no longer had any effect”. For the same compound, in the test on CD98, the “heterodimer CD98” value is “remained intact”. Also, the “mitochondrial membrane potential (MMP)” value with HPAECs is “immediate loss”. In the test on LOX-1, the “uptake of acetylated LDL (AcLDL) by HPAECs” value was “decreased”. Besides, the “disulfide-linked multimeric vWF” value with vWF is recorded as “dissociation of disulfide-linked multimeric vWF”.

On to `C=C(C)[C@H]1Cc2c(ccc3c2O[C@@H]2COc4cc(OC)c(OC)cc4[C@@H]2C3=O)O1` [rotenone], for which the protein disulfide formation entry in test [1] is on record as “decreased”.
